Patent publication US4182897A, “Amino- or guanidino-phenylpropionic acid derivatives” (Torii & Co., Ltd., priority 1977, dated 1980)
Counter-ions that a name gives are not always drawn. Like-named read-outs stand apart in the source and are kept apart here.

Key:
[1] = molecular target: T1, Trypsin (Bos taurus, UniProt P00760); test: Inhibitory effect on ester-hydrolyzing activity of trypsin (TAMe substrate); type: biochemical; settings: for inhibition at 1000 µM: read-out: percent inhibition at 10^-3 M (trypsin); for IC50 / inhibitory action on trypsin: in vitro; for IC50: tosylarginine methyl ester hydrolysis, read-out: ID50 (trypsin)
T1 sequence (P00760 24-246): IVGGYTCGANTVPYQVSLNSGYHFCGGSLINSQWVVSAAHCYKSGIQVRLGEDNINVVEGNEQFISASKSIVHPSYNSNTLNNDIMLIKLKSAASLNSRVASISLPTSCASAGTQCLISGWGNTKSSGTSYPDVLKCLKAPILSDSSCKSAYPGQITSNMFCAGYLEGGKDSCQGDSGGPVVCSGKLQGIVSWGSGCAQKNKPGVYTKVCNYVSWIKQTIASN
Protocol: (A) Determination of Enzyme-inhibitory Activity: The enzyme-inhibitory activities in vitro of the compounds of this invention were measured by the following procedure according to the method of M. Muramatsu et al. [[…]. Makino, Y. Hayashi and S. Fujii: J. […] Then, 10 μmoles of the substrate, TAMe (tosylarginine methyl ester), was added, and incubation was performed at 37° C. for 30 minutes. After the incubation, 1.5 ml of 2 M alkaline hydroxylamine was added and thoroughly mixed, and allowed to stand at room temperature for 15 minutes.

[2] = molecular target: Human Plasmin (Homo sapiens, UniProt P00747); test: Inhibitory effect on ester-hydrolyzing activity of human plasmin (TAMe substrate); type: biochemical; settings: for inhibition at 1000 µM: read-out: percent inhibition at 10^-3 M (plasmin); for inhibitory action on plasmin: in vitro
Sequence of Human Plasmin (P00747 581-810 limits assumed): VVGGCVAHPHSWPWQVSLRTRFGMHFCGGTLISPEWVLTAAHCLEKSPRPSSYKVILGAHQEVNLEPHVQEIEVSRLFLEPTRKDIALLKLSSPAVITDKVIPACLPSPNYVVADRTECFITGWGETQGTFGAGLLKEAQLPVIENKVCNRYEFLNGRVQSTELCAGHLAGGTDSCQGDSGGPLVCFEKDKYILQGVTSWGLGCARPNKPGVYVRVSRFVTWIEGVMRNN
Sequence of Human Plasmin (P00747 97-580 partner limits assumed): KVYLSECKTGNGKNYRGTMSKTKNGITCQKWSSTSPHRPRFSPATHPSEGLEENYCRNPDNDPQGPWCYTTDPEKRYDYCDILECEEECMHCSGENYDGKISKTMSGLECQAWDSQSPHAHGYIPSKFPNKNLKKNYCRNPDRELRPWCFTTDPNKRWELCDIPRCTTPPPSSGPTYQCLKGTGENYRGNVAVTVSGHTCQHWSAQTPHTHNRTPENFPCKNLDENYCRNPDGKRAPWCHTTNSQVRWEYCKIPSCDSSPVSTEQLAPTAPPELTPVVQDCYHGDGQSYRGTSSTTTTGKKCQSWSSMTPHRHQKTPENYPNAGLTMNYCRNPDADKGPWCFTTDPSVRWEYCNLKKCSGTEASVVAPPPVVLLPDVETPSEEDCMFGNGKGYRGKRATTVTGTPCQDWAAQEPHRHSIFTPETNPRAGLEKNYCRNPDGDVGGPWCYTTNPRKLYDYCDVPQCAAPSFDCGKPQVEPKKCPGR
Protocol: (A) Determination of Enzyme-inhibitory Activity: The enzyme-inhibitory activities in vitro of the compounds of this invention were measured by the following procedure according to the method of M. Muramatsu et al. [[…]. Makino, Y. Hayashi and S. Fujii: J. […] (2) Inhibitory Effect on Ester-hydrolyzing Activity of Human Plasmin It was measured by using 0.1 ml of plasmin (generated by activation of plasminogen with streptokinase) and TAMe as substrate following the method described in (1).

[3] = molecular target: Bovine Thrombin (Bos taurus, UniProt P00735); test: Inhibitory effect on ester-hydrolyzing activity of bovine thrombin (TAMe substrate); type: biochemical; settings: for inhibition at 1000 µM: read-out: percent inhibition at 10^-3 M (thrombin); for inhibitory action on thrombin: in vitro
Protocol: (4) Inhibitory Effect on Ester-Hydrolyzing Activity of Bovine Thrombin
It was measured by using 0.4 ml of bovine thrombin […], 0.02 M sodium phosphate buffer solution (pH 7.4) and TAMe as substrate following the method described in (1).

[4] = molecular target: Human Plasma Kallikrein (Homo sapiens, UniProt P03952); test: Inhibitory effect on ester-hydrolyzing activity of human plasma kallikrein (TAMe substrate); type: biochemical; settings: for inhibition at 1000 µM: read-out: percent inhibition at 10^-3 M (kallikrein); for inhibitory action on kallikrein: in vitro
Sequence of Human Plasma Kallikrein (P03952 391-638 limits assumed): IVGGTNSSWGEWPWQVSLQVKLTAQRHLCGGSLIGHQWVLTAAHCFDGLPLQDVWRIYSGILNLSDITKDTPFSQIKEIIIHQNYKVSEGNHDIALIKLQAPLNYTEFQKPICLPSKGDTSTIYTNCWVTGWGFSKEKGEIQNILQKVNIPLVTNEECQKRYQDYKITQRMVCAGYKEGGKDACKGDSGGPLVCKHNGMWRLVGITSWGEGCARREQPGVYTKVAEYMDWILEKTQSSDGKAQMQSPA
Sequence of Human Plasma Kallikrein (P03952 20-390 partner limits assumed): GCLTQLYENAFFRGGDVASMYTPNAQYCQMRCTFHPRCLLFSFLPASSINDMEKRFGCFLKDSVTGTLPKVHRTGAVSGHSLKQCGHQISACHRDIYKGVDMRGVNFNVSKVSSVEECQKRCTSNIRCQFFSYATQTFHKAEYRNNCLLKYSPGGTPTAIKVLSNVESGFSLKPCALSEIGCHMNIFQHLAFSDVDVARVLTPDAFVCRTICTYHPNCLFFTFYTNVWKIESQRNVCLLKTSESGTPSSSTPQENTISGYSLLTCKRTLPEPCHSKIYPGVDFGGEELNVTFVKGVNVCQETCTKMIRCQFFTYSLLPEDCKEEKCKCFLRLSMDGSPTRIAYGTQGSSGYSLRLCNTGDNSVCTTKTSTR
Protocol: (A) Determination of Enzyme-inhibitory Activity: The enzyme-inhibitory activities in vitro of the compounds of this invention were measured by the following procedure according to the method of M. Muramatsu et al. [[…]. Makino, Y. Hayashi and S. Fujii: J.

[5] = molecular target: T2, Human Cl Esterase (Homo sapiens, UniProt P09871); test: Inhibitory effect on ester-hydrolyzing activity of human Cl esterase (ATEe substrate); type: biochemical; settings: for inhibition at 1000 µM: read-out: percent inhibition at 10^-3 M (Cl esterase); for inhibitory action on Cl esterase / IC50: in vitro; for IC50: acetyltyrosine ethyl ester hydrolysis, read-out: ID50 (Cl esterase)
T2 sequence (P09871 438-688 limits assumed): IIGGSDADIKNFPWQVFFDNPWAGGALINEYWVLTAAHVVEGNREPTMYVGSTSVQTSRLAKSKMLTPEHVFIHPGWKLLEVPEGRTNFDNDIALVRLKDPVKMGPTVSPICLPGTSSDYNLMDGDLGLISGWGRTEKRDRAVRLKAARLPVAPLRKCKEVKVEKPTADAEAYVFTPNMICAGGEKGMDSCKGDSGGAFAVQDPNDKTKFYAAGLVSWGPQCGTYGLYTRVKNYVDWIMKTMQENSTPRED
T2 sequence (P09871 16-437 partner limits assumed): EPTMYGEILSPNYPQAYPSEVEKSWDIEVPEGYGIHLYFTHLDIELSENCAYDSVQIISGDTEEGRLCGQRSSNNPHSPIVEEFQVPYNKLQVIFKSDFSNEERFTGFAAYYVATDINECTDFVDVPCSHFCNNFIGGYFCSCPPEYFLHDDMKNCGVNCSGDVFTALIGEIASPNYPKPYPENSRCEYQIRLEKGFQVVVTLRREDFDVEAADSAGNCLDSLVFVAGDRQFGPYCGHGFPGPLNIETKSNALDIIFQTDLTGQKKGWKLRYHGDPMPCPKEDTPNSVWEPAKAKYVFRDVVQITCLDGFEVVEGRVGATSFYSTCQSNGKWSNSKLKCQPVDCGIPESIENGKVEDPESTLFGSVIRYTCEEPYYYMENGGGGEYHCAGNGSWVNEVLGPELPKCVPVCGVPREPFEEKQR
Protocol: It was measured by using 0.1 ml of Cl esterase, 0.1 ml of 0.02 M sodium phosphate buffer solution (pH 7.4) and 10 μmoles of ATEe (acetyltyrosine ethyl ester) as substrate following the method described in (1).

[6] = tested on: collagen induced platelet aggregation of rabbit PRP; test: Inhibition of collagen induced platelet aggregation of rabbit PRP; type: cell-based; settings: Oryctolagus cuniculus; for inhibition at 10 µg/mL: 10.0 μg/ml; for inhibition at 2.5 µg/mL: 2.5 μg/ml; for inhibition at 5 µg/mL: 5.0 μg/ml; for inhibition at 1 µg/mL: 1.0 μg/ml
Protocol: (B) Determination of Inhibitory Activity on Collagen Induced Platelet Aggregation:
According to the method of Born et al. [Born, G. V. R.: J. Physiol., 168. 178 (1963)], the platelet aggregation inhibition (%) was determined at various concentrations of compounds by the following procedure:
Rabbit PRP (platelet rich plasma), 0.9 ml, obtained from sodium citrate-added blood, was taken into a polyethylene tube and incubated at 37° C. for 1 minute, and then 10 μl of a compound solution or physiological saline as control, was added.
Subsequently, 0.1 ml of collagen solution was added, and change in absorbance of PRP, resulting from the progress of platelet aggregation, was determined by means of platelet aggregation meter and recorded.
Percent inhibition was calculated according to the following equation: [formula]

Compound | inhibition at 1000 µM [1] | inhibition at 1000 µM [2] | inhibition at 1000 µM [4] | inhibition at 1000 µM [5] | inhibition at 10 µg/mL [6] | IC50 [1] | inhibition at 1000 µM [3] | IC50 [5] | also measured
Cc1ccc(OC(=O)CCc2ccc(N)cc2)cc1 [Compound No. 1, p-Methylphenyl β-(p-aminophenyl)-propionate hydrochloride] | < 10% | < 10% | < 10% | < 10% | 42% | – | – | – | IC50 [3]: 880 µM
CC(Cc1ccc(N)cc1)C(=O)Oc1ccc(Cl)cc1 (stereo not drawn) [Compound No. 2, p-Chlorophenyl α-methyl-β-(p-aminophenyl)-propionate hydrochloride] | – | – | – | – | – | 330 µM | – | – | –
Cl.Nc1ccc(CCC(=O)Oc2ccccc2)cc1 [Compound No. 3, Phenyl β-(p-aminophenyl)-propionate hydrochloride] | < 10% | < 10% | < 10% | < 10% | – | – | – | – | inhibitory action on trypsin [1]: no inhibitory action; inhibitory action on plasmin [2]: no inhibitory action; IC50 [3]: 290 µM; inhibitory action on kallikrein [4]: no inhibitory action; inhibitory action on Cl esterase [5]: no inhibitory action
CCC(Cc1cccc(N)c1)C(=O)Oc1ccc(OC)cc1 (stereo not drawn) [Compound No. 4, p-Methoxyphenyl α-ethyl-β-(m-aminophenyl)-propionate hydrochloride] | – | < 10% | < 10% | 14.8% | – | – | < 10% | – | IC50 ([1]; 30 min): 400 µM
CCC(Cc1cccc(N)c1)C(=O)Oc1cccc2ccccc12 (stereo not drawn) [Compound No. 7, 1-naphthyl α-ethyl-β-(m-aminophenyl)-propionate] | – | < 10% | – | 11.7% | 100% | 10 µM | < 10% | – | inhibition at 2.5 µg/mL [6]: 37%; inhibition at 5 µg/mL [6]: 84%
CC(Cc1cccc(NC(=N)N)c1)C(=O)Oc1ccc(Cl)cc1 (stereo not drawn) [Compound No. 44, p-Chlorophenyl α-methyl-β-(m-guanidinophenyl)-propionate carbonate] | – | – | – | – | – | – | – | 250 µM | –
Cc1ccc(OC(=O)C(C)Cc2ccc(NC(=N)N)cc2)cc1 (stereo not drawn) [Compound No. 45, p-Methylphenyl α-methyl-β-(p-guanidinophenyl)-propionate hydrochloride] | 21.4% | < 10% | < 10% | – | – | – | < 10% | 780 µM | –
CC(Cc1cccc(NC(=N)N)c1)C(=O)Oc1ccccc1.O=C(O)O (stereo not drawn) [Compound No. 46, Phenyl α-methyl-β-(m-guanidinophenyl)-propionate carbonate] | 12.2% | < 10% | 12.9% | – | – | – | < 10% | 310 µM | inhibitory action on trypsin [1]: no inhibitory action; inhibitory action on plasmin [2]: no inhibitory action; inhibitory action on thrombin [3]: no inhibitory action; inhibitory action on kallikrein [4]: no inhibitory action
CCOC(=O)c1ccc(OC(=O)CCc2ccc(NC(=N)N)cc2)cc1.Cl [Compound No. 47, p-Ethoxycarbonylphenyl β-(p-guanidinophenyl)-propionate hydrochloride] | – | < 10% | 36% | < 10% | – | 78 µM | 12.3% | – | inhibitory action on plasmin [2]: no inhibitory action; inhibitory action on thrombin [3]: no inhibitory action; inhibitory action on kallikrein [4]: no inhibitory action; inhibitory action on Cl esterase [5]: no inhibitory action
CC(=O)Oc1ccccc1C(=O)O [aspirin, reference compound] | – | – | – | – | 100% | – | – | – | inhibition at 5 µg/mL [6]: 78%
CC(Cc1cccc(N)c1)C(=O)Oc1ccc(Cl)cc1 (stereo not drawn) [compound 5, p-chlorophenyl α-methyl-β-(m-aminophenyl)-propionate] | – | < 10% | < 10% | < 10% | – | 10 µM | < 10% | – | –
COc1ccc(OC(=O)CCc2ccc(N)cc2)cc1 [compound 32, p-methoxyphenyl β-(p-aminophenyl)-propionate] | 38.8% | < 10% | < 10% | < 10% | 100% | – | – | – | IC50 [3]: 170 µM; inhibition at 2.5 µg/mL [6]: 41%; inhibition at 5 µg/mL [6]: 100%
CCCCOc1ccc(OC(=O)CCc2ccc(N)cc2)cc1 [compound 33, p-n-butoxyphenyl β-(p-aminophenyl)-propionate] | – | < 10% | < 10% | < 10% | 100% | 890 µM | 19.9% | – | inhibition at 0.5 µg/mL ([6]; 0.5 μg/ml): 46%; inhibition at 1 µg/mL [6]: 100%; inhibition at 2.5 µg/mL [6]: 100%; inhibition at 5 µg/mL [6]: 100%
CCOC(=O)c1ccc(OC(=O)C(CC)Cc2ccc(N)cc2)cc1 (stereo not drawn) [compound 36, p-ethoxycarbonylphenyl α-ethyl-β-(p-aminophenyl)-propionate] | – | < 10% | 15.9% | < 10% | – | 170 µM | 25.3% | – | –
CC(Cc1cccc(NC(=N)N)c1)C(=O)Oc1cccc2ccccc12 (stereo not drawn) [compound 50, 1-naphthyl α-methyl-β-(m-guanidinophenyl)-propionate] | – | 42% | – | – | 100% | 57 µM | < 10% | 140 µM | inhibition at 1 µg/mL [6]: 4%; inhibition at 2.5 µg/mL [6]: 100%; inhibition at 5 µg/mL [6]: 100%
CC(Cc1ccc(NC(=N)N)cc1)C(=O)Oc1ccc(Cl)cc1 (stereo not drawn) [compound 52, p-chlorophenyl α-methyl-β-(p-guanidinophenyl)-propionate] | – | 18.8% | 38.4% | – | – | 490 µM | < 10% | 56 µM | –
CCC(Cc1cccc(NC(=N)N)c1)C(=O)Oc1ccccc1 (stereo not drawn) [compound 65, phenyl α-ethyl-β-(m-guanidinophenyl)-propionate] | 35% | < 10% | 15.6% | – | – | – | 16.8% | 70 µM | –
CCCCOc1ccc(OC(=O)CCc2ccc(NC(=N)N)cc2)cc1 [compound 71, p-n-butoxyphenyl β-(p-guanidinophenyl)-propionate] | – | 20% | 1.5% | < 10% | – | 660 µM | < 10% | – | –
